In patent US6852685B1, “Use of colostrinin, constituent peptides thereof, and analogs thereof to promote neuronal cell differentiation” (Board of Regents, The University of Texas System, priority 1999, dated 2005):
Entries after “also recorded” stand apart in the source; their conditions may differ.

Test system: medullary pheochromocytoma (PC12) cells
Experiment: Effect on morphology (differentiation) of PC12 cells
Assay type: cell-based
Details: for 1% FBS (cell differentiation) / 10% FBS (cell differentiation): six days after treatment; for Cell morphology: morphologies seen after treatment (list per substance, not tied to one concentration)
Method: Cells: PC12 cell line derived from medullary pheochromocytoma cells were used to undertake studies described bellow. PC 12 cells were obtained from the American Type Culture Collection and maintained in RPMI-1640 supplemented with 10% fetal bovine serum (HYCLONE Inc), penicillin (100 U/ml) and streptomycin (100 μg/ml).
Methods: To evaluate the effect of colostrum, colostrinin and its component peptides on cell differentiation 3×10^4 logarithmically replicating (70% confluence) PC12 cells were seeded in 24× well plates and cells were allowed to adhere and grow for 24 hours. Serum containing media were aspirated and replaced for serum-free RPMI containing appropriate amount of antibiotics. In four parallel, increasing concentrations (0.1, 1, 10 and 100 μg per ml) of colostrum, colostrinin and its component peptides were added directly into the media and incubated at 37° C. As a positive control, nerve growth factor (NGF) 7S (Gibco-BRL) was used at 100 ng per ml concentration (Chao, Cell, 69, 995-997 (1992); and Marshall et al., Cell 80, 179-185 (1995)). Phorbol 12-myristate 13-acetate (TPA: 10 ng per mil) was used as a negative control. Eight hours later the media were changed and RPMI-1640 was added containing 1% or 10% fetal bovine serum. The cultures were microscopically investigated 2nd, 4th and 6th days after treatment. Six days after treatment cells were fixed with paraformaldehyde (4%) and stained with 0.01% crystal violet solution. Excess of dyes were removed by ethanol washing. The final evaluation took place using a microscopy (Axiophot2 Zeiss Inc., Germany).

Molecule	1% FBS (cell differentiation) (0.1 μg/ml)	1% FBS (cell differentiation) (1.0 μg/ml)	1% FBS (cell differentiation) (10 μg/ml)	1% FBS (cell differentiation) (100 μg/ml)	10% FBS (cell differentiation) (0.1 μg/ml)	10% FBS (cell differentiation) (1.0 μg/ml)	10% FBS (cell differentiation) (100 μg/ml)	Cell morphology	10% FBS (cell differentiation) (10 μg/ml)
DLEMPVLPVEPFPFV [SEQ ID NO:5]	− (− = ≦0.01% (back-ground))	− (− = ≦0.01% (back-ground))	− (− = ≦0.01% (back-ground))	− (− = ≦0.01% (back-ground))	− (− = ≦0.01% (back-ground))	− (− = ≦0.01% (back-ground))	+ (+ = 1%)	fibroblast-like; also recorded: epitheloid; also recorded: neuron-like	–
VESYVPLFP [SEQ ID NO:31]	–	− (− = ≦0.01% (back-ground))	− (− = ≦0.01% (back-ground))	–	− (− = ≦0.01% (back-ground))	–	–	fibroblast-like; also recorded: neuron-like	–
LFFFLPVVNVLP [SEQ ID NO:4]	− (− = ≦0.01% (back-ground))	− (− = ≦0.01% (back-ground))	− (− = ≦0.01% (back-ground))	− (− = ≦0.01% (back-ground))	− (− = ≦0.01% (back-ground))	+ (+ = 1%)	++ (++ = 1-5%)	fibroblast-like; also recorded: epitheloid; also recorded: neuron-like	++ (++ = 1-5%)
VLEMKFPPPPQETVT [SEQ ID NO:7]	− (− = ≦0.01% (back-ground))	− (− = ≦0.01% (back-ground))	− (− = ≦0.01% (back-ground))	− (− = ≦0.01% (back-ground))	− (− = ≦0.01% (back-ground))	+ (+ = 1%)	–	fibroblast-like; also recorded: neuron-like	+ (+ = 1%)
MQPPPLP [SEQ ID NO:1]	− (− = ≦0.01% (back-ground))	− (− = ≦0.01% (back-ground))	− (− = ≦0.01% (back-ground))	− (− = ≦0.01% (back-ground))	–	+ (+ = 1%)	–	epitheloid; also recorded: neuron-like	++ (++ = 1-5%)
CCCCCCCCCCCCCC(=O)O[C@@H]1[C@@H](C)[C@@]2(O)[C@@H](C=C(CO)C[C@]3(O)C(=O)C(C)=C[C@@H]23)[C@@H]2C(C)(C)[C@]12OC(C)=O [TPA, Phorbol 12-myristate 13-acetate, reference compound]	–	–	–	–	–	–	–	rounded	–
LQTPQPLLQVMMEPQGD [SEQ ID NO:2]	− (− = ≦0.01% (back-ground))	− (− = ≦0.01% (back-ground))	+ (+ = 1%)	− (− = ≦0.01% (back-ground))	–	++ (++ = 1-5%)	+ (+ = 1%)	fibroblast-like; also recorded: neuron-like	++ (++ = 1-5%)
DQPPDVEKPDLQPFQVQS [SEQ ID NO:3]	− (− = ≦0.01% (back-ground))	− (− = ≦0.01% (back-ground))	− (− = ≦0.01% (back-ground))	− (− = ≦0.01% (back-ground))	− (− = ≦0.01% (back-ground))	–	+ (+ = 1%)	fibroblast-like; also recorded: neuron-like	+ (+ = 1%)
LKPFPKLKVEVFPFP [SEQ ID NO:8]	− (− = ≦0.01% (back-ground))	− (− = ≦0.01% (back-ground))	− (− = ≦0.01% (back-ground))	− (− = ≦0.01% (back-ground))	− (− = ≦0.01% (back-ground))	++ (++ = 1-5%)	− (− = ≦0.01% (back-ground))	fibroblast-like; also recorded: neuron-like	+ (+ = 1%)
MPQNFYKLPQM [SEQ ID NO:6]	− (− = ≦0.01% (back-ground))	− (− = ≦0.01% (back-ground))	− (− = ≦0.01% (back-ground))	− (− = ≦0.01% (back-ground))	− (− = ≦0.01% (back-ground))	–	+ (+ = 1%)	fibroblast-like; also recorded: epitheloid	+ (+ = 1%)
